Experimental data: EP1388586A2, “Identification of broadly reactive DR restricted epitopes” (priority 1998, dated 1999)
Like-named read-outs stand apart in the source and are kept apart here. Ends that are not written are not given here.

Legend:
[1] = target: DRB1*0405 (DR4w15) (Homo sapiens, UniProt P01903+P01911, A100R/A169T/D86S/F76Y/I96L/K127E/L162R/M171V/N62H/P40V/Q125Y/R42H/S133A/S149N/S66Y/V115G/V209L/W38E); assay: Class II peptide-binding assay, DR4w15
Description: (§1) Class II peptide-binding assays. […] These assays were chosen as to be representative of the most common DR alleles.
(§2) Radiolabeled peptides were iodinated using the chloramine-T method. […] In appropriate stoichiometric conditions, the IC50 of an unlabeled test peptide to the purified DR is a reasonable approximation of the affinity of interaction (Kd). Peptides were tested in two to four completely independent experiments. […] Final detergent concentration in the incubation mixture was 0.05% Nonidet P-40. Assays were performed at pH 7.0 with the exception of DR3, which was performed at pH 4.5, and DRw53, which was performed at pH 5.0.
(§3) All subsequent inhibition and direct binding assays were the performed using these class II concentrations.
DR4w15. The β4 product DRw53 is co-expressed with DR4w15 and the determination of the specificity of the DR4w1 binding assay is complicated in that the same radiolabeled ligand is used for both the DR4w15 and DRw53 binding assays.

[2] = target: T1, DRB1*0802 (DR8w2) (Homo sapiens, UniProt P01903+P01911, A100R/A103L/A169T/F76Y/H45Y/I96F/K41T/L162R/M171V/P40S/Q125H/Q178H/Q39Y/Q99D/R218S/R42G/S66Y/V115G/W38E); assay: Class II peptide-binding assay, DR8w2
T1 construct: used as sources of human HLA class II molecules; endogenous in cells; host or cells: OLL (EBV-transformed homozygous B cell line)
Description: as §1, §2, §3
DR8w2 and DR8w3. The β1 specificity of the DR8w2 and DR8w3 assays is obvious in that no β3 (and/or B4 and β5) molecule is expressed.

[3] = target: T2, DRB1*0401 (DR4w4) (Homo sapiens, UniProt P01903+P01911, A100K/A169T/F76Y/I96L/K127E/L162R/M171V/N62H/P40V/Q125Y/R42H/S133A/S149N/S66Y/V115G/V209L/W38E); assay: Class II peptide-binding assay, DR4w4;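 further: unlabeled test peptides compete with a radiolabeled probe peptide for binding to affinity-purified HLA-DR, with DR amount titrated to capture a small fraction of label, IC50 approximating Kd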
T2 construct: used as sources of human HLA class II molecules; endogenous in cells; host or cells: PREISS (EBV-transformed homozygous B cell line)

[4] = target: T3, DRB1*1101 (DR5w11) (Homo sapiens, UniProt P01903+P01911, A100R/A169T/A87E/I96F/K41T/L162R/M171V/P40S/Q125H/Q178H/Q39Y/Q99D/R42S/S66Y/T262R/V115G/W38E); assay: Class II peptide-binding assay, DR5w11;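 further: competition by unlabeled test peptide against iodinated probe peptide binding to affinity-purified HLA-DR, class II amount titrated beforehand, half-maximal inhibitory concentration read as approximate Kd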
T3 construct: used as sources of human HLA class II molecules; endogenous in cells; host or cells: SWEIG (EBV-transformed homozygous B cell line)
T3 sequence (P01903 26-254, other chains not shown): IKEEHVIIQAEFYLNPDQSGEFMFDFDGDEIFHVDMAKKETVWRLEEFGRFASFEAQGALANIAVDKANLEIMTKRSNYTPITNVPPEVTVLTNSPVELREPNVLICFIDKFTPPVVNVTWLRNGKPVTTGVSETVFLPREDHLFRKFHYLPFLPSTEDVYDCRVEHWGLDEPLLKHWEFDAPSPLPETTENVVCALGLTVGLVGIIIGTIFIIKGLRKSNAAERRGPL

[5] = target: T4, DRB1*0101 (DR1) (Homo sapiens, UniProt P01903+P01911, A100R/D57E/F55L/F60I/F76Y/I96L/L162R/M171V/P40L/Q125E/R42F/V115G/Y59C); assay: Class II peptide-binding assay, DR1;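 further: competition assay: unlabeled test peptides inhibit binding of a radiolabeled probe peptide to purified DR, with half-maximal inhibition taken as an approximate dissociation constant Kd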
T4 construct: used as sources of human HLA class II molecules; endogenous in cells; host or cells: LG2 (EBV-transformed homozygous B cell line)
Description: as §1, §2, §3

[6] = tested on: panel of purified HLA DR molecules; assay type: binding, human;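 further: competitive inhibition of radiolabeled probe peptide binding to purified HLA DR molecules, with inhibitory potency of unlabeled peptides taken as an approximation of affinity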
Description: as §1, §2, §3

[7] = target: T5, DRB1*0901 (DR9) (Homo sapiens, UniProt P01903+P01911, A100R/A103E/D57H/D86V/F55Y/F60I/F76Y/I96F/K127E/L162R/M171V/P40D/Q125H/Q99R/R33Q/R42F/S133A/S66N/T210M/V115G/W38K/Y107V/Y59G/Y89S); assay: Class II peptide-binding assay, DR9; conditions: Table V A) Non Predictions; read-out: Binding Capacity DR9
T5 construct: used as sources of human HLA class II molecules; endogenous in cells; host or cells: HTC9074 (EBV-transformed homozygous B cell line); gift of Dr. Paul Harris
Description: as §1
(§4) In appropriate stoichiometric conditions, the IC50 of an unlabeled test peptide to the purified DR is a reasonable approximation of the affinity of interaction (Kd). Peptides were tested in two to four completely independent experiments. […] Final detergent concentration in the incubation mixture was 0.05% Nonidet P-40. Assays were performed at pH 7.0 with the exception of DR3, which was performed at pH 4.5, and DRw53, which was performed at pH 5.0.
as §3

[8] = target: T6, DRB1*1501 (DR2w2b) (Homo sapiens, UniProt P01903+P01911); assay: Class II peptide-binding assay, DR2w2b (DR2w2B1)
T6 construct: expressed in transfected cells; host or cells: L466.1 transfected fibroblasts
Description: as §1, §4, §3

[9] = target: T7, DRB1*1201 (DR5w12) (Homo sapiens, UniProt P01903+P01911, A100R/A169T/D57E/D86V/F55L/H45Y/K41T/L162R/M171V/P40S/Q125H/Q178H/Q39Y/Q99D/R42G/S66L/T262R/V114A/V67L/W38E/Y59H/Y61H/Y89S); assay: Class II peptide-binding assay, DR5w12
T7 construct: used as sources of human HLA class II molecules; endogenous in cells; host or cells: Herluf (EBV-transformed homozygous B cell line)
Description: as §1, §4, §3

[10] = target: T8, DRB5*0101 (DR2w2a) (Homo sapiens, UniProt P01903+Q30154); assay: Class II peptide-binding assay, DR2w2a (DR2w2B2);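 further: competitive binding assay: unlabeled peptide inhibiting binding of a radiolabeled probe peptide to purified DR molecules at pH 7.0, IC50 approximating Kd, lower means stronger binding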
T8 construct: used as sources of human HLA class II molecules; endogenous in cells; host or cells: GM3107 (EBV-transformed homozygous B cell line)
Description: as §1, §2, §3

[11] = target: DRB1*1302 (DR6w19) (Homo sapiens, UniProt P01903+P01911, A100E/A169T/K41T/L162R/M171V/P40S/Q125H/Q178H/Q39Y/Q99D/R42S/S66N/T262R/V115G/W38E/Y61H); assay type: binding
Chain of DRB1*1302 (DR6w19) (P01903 26-254, other chains not shown): as above
Description: The lysates were cleared of debris and nuclei by centrifugation at 10,000 x g for 20 min.
Affinity purification of HLA-DR molecules.
as §1, §2, §3
DR6w19. The DR6w19 assay utilizes as the source of class II molecules the EBV transformed homozygous cell line H0301, which co-expresses DRB30301 (DR52a). While the radiolabeled ligand used in the DR6w19 assay is different than that used for the DR52a assay, the ligand is related (i.e., is a single substitution analog) to a high affinity DR52a binder. As was done in the case of DR4w15, the specificity of the assay was investigated by analyzing the binding capacity of a panel of naturally occurring peptides for DR6w19 and DR52a.

[12] = target: DRB1*0701 (DR7) (Homo sapiens, UniProt P01903+P01911, A100R/A102G/A103Q/D57E/D86V/E43K/F76Y/K127E/L162R/M171V/P40G/Q125H/Q99D/R33Q/R42Y/R54Q/S133A/S66F/T210M/V115G/Y107V/Y59L/Y89S); assay: Class II peptide-binding assay, DR7;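 further: unlabeled peptides compete with an iodinated probe peptide for binding to affinity-purified HLA-DR at neutral pH, DR amount titered to bind a small tracer fraction, IC50 approximating Kd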
[13] = Table V A) Non Predictions, read-out: Binding Capacity DR4w15
[14] = Table V A) Non Predictions, read-out: Binding Capacity DR8w2
[15] = Table V A) Non Predictions, read-out: Binding Capacity DR4w4
[16] = Table V A) Non Predictions, read-out: Binding Capacity DR5w11
[17] = Table V A) Non Predictions, read-out: Binding Capacity DR1
[18] = Table V A) Non Predictions, 12 DR molecules listed
[19] = Table V B) Correct Predictions, read-out: Binding Capacity (IC50% nM) DR4w15
[20] = Table V B) Correct Predictions, read-out: Binding Capacity (IC50% nM) DR1
[21] = Table V B) Correct Predictions, read-out: Binding Capacity (IC50% nM) DR6w19
[22] = Table V B) Correct Predictions, read-out: Binding Capacity (IC50% nM) DR7

Molecule | IC50 [1, 13] [nM] | IC50 [2, 14] [nM] | IC50 [3, 15] [nM] | IC50 [4, 16] [nM] | IC50 [5, 17] [nM] | Total Alleles Bound [6, 18] | IC50 [1, 19] [nM] | IC50 [5, 20] [nM] | Total Alleles Bound [6] | IC50 [11, 21] [nM] | IC50 [12, 22] [nM] | other results
WLFPRFKFVWVTYASW [Peptide 1136.44.01] | 6550 | 6360 | 780 | 4000 | 526 | 2 | – | – | – | – | – | –
GPPTALRSFGFAFGYM [Peptide 1136.29] | 745 | 2970 | 4330 | 6250 | 32 | 7 | – | – | – | – | – | IC50 [7]: 183 nM; IC50 ([8]; Table V A) Non Predictions, read-out: Binding Capacity DR2w2b): 1.1 nM; IC50 ([9]; Table V A) Non Predictions, read-out: Binding Capacity DR5w12): 1000 nM; IC50 ([10]; Table V A) Non Predictions, read-out: Binding Capacity DR2w2a): 468 nM
RVYQEPQVSPPQRAET [Peptide 1136.59.01a] | – | – | – | – | – | – | 3140 | 130 | 3 | – | – | –
QEIDPLSYNYIPVNSN [Peptide 1136.55] | – | – | – | – | – | – | 271 | – | 3 | 5000 | 2450 | IC50 ([4]; Table V B) Correct Predictions, read-out: Binding Capacity (IC50% nM) DR5w11): 4540 nM
CC[C@H](C)[C@H](NC(=O)[C@H](CCSC)NC(=O)[C@H](Cc1c[nH]c2ccccc12)NC(=O)[C@@H](N)CS)C(=O)N[C@@H](CC(=O)O)C(=O)N[C@@H](CO)C(=O)N[C@@H](CCC(=O)O)C(=O)N[C@@H](CS)C(=O)N[C@@H](CCCNC(=N)N)C(=O)N1CCC[C@H]1C(=O)N[C@@H](CCCNC(=N)N)C(=O)N[C@@H](Cc1ccccc1)C(=O)N[C@@H](CCCNC(=N)N)C(=O)N[C@@H](CCC(=O)O)C(=O)N[C@@H](CC(C)C)C(=O)O [Peptide 39.0369] | – | – | – | – | – | – | – | – | – | – | – | IC50 ([8]; read-out: In IC50 Format DR2w2B1 nM, Table VIII, values in parentheses read as lower bounds): > 15200 nM; IC50 ([4]; read-out: In IC50 Format DR5w11 nM, Table VIII, values in parentheses read as lower bounds): > 25000 nM; IC50 ([11]; read-out: In IC50 Format DR6w19 nM, Table VIII, values in parentheses read as lower bounds): > 35000 nM; IC50 ([10]; Table VIII, values in parentheses read as lower bounds, read-out: In IC50 Format DR2w2B2): 1330 nM; IC50 ([12]; read-out: In IC50 Format DR7 nM, Table VIII, values in parentheses read as lower bounds): > 17900 nM
LAAIIFLFGPPTALRS [Peptide 1136.28] | – | – | – | – | – | – | 6670 | 0.23 | 3 | 3180 | 3620 | IC50 ([2]; Table V B) Correct Predictions, read-out: Binding Capacity (IC50% nM) DR8w2): 7540 nM; IC50 ([3]; Table V B) Correct Predictions, read-out: Binding Capacity (IC50% nM) DR4w4): 849 nM; IC50 ([9]; Table V B) Correct Predictions, read-out: Binding Capacity (IC50% nM) DR5w12): 4480 nM; IC50 ([10]; Table V B) Correct Predictions, read-out: Binding Capacity (IC50% nM) DR2w2a): 1480 nM
